Reference: US12624398B2, “Use of long non-coding RNAs in medulloblastoma” (THE JOHNS HOPKINS UNIVERSITY, priority 2019, dated 2026)
l = locked nucleic acid (LNA); d = 2'-deoxy (DNA)

Legend:
D425 Med cells [1] = assay: Apoptosis, Caspase-Glo 3/7 Assay; assay type: cell-based, human; details: ASO 50 nM, p<0.01
Procedure: (§1) Cell proliferation, apoptosis, and 3D colony formation assays. Cells were plated in 96-well plates at 5×10^3 cells per well in triplicate. After 72 hours of ASO or siRNA transfection, living cells were counted by trypan blue staining. Apoptotic cells were analyzed using a GloMax luminometer (Promega, Fitchburg, WI) with conditions optimized for the Caspase-Glo 3/7 Assay. For the 3D colony formation assay, cells were seeded in 24-well plates at a density of 1×10^2 cells/well and were stained with crystal violet solution approximately 14 days later. Colony number was determined using the EVE cell counter (Nano Entek, Pleasanton, CA), and staining intensity was analyzed using ImageJ software.

MED211 cells [2] = assay: Apoptosis, Caspase-Glo 3/7 Assay; assay type: cell-based, human; details: ASO 50 nM, p<0.01
Procedure: as §1

D425 Med cells [3] = assay: Cell proliferation, living cells counted by trypan blue staining; assay type: cell-based, human
Procedure: (§2) Cell culture. Cell lines were authenticated using single tandem repeat profiling. D425 Med cells were cultured in DMEM/F12 with 10% serum and 1% glutamate/penicillin/streptomycin. MED211 cells were cultured in medium composed of 30% Ham's F12/70% DMEM, 1% antibiotic antimycotic, […] B27 supplement, 5 μg/mL heparin, 20 ng/mL EGF, and 20 ng/mL FGF2. DAOY cells were cultured in DMEM with 10% serum and 1% glutamate/penicillin/streptomycin. All cells were grown in a humidified incubator at 37° C., 5% CO2. For blocking of BET bromodomain protein in D425 Med and MED211 cells, JQ1 (SML1524-5MG, Sigma Aldrich, St. Louis, MO) was added, and the medium was changed every other day.
as §1

MED211 cells [4] = assay: as above; assay type: cell-based, human
Procedure: as §2, §1

lnc-HLX-2-7 [5] = assay: qRT-PCR of lnc-HLX-2-7 expression in MB cells; assay type: cell-based, human
Procedure: as §2
(§3) Quantitative real-time PCR (qRT-PCR). Total RNA was purified using the Direct-zol RNA Miniprep kit (Zymo Research, Irvine, CA). To obtain RNA from xenografts, tumor tissues were pulverized and then used for purification.
(§4) ASO-lnc-HLX2-7. Antisense oligonucleotides (ASOs) were designed using the Integrated DNA Technologies (IDT) Antisense Design Tool (IDT, Coralville, IA). ASO knockdowns were performed with 50 nM (final concentration) locked nucleic acid (LNA) GapmeRs transfected with Lipofectamine 3000 (Thermo Fisher Scientific, Waltham, MA). All ASOs were modified with phosphorothioate (PS) linkages. The following ASOs were used: ASO targeting lnc-HLX-2-7 (ASO-lnc-HLX-2-7): +T*+G*+A*G*A*G*A*T*T*A*A*T*C*T*A*G*A*T*+T*+G*+C (SEQ ID NO:240) and control ASO targeting luciferase (ASO-Luc): +T*+C*+G*A*A*G*T*A*C*T*C*A*G*C*G*T*A*A*+G*+T*+T (SEQ ID NO:241). The PS linkages are indicated with * and LNA-modified oligonucleotides are indicated with +.
(§5) siRNA-mediated knockdown of HLX, MYC, and MY CN. siRNAs targeting HLX (catalog no. 4427037, ID: s6639) and MYC (catalog no. 4427037, ID: s9129) were purchased from Thermo Fisher Scientific. siRNAs were transfected at 20 nM for 48 h using Lipofectamine RNAiMAX (Thermo Fisher Scientific). The efficiency was determined by qRT-PCR.

HLX = assay: qRT-PCR of HLX expression in MB cells; assay type: cell-based, human; details: ASO 50 nM
Procedure: as §3, §4, §5

lnc-HLX-2-7 [6] = assay: qPCR of lnc-HLX-2-7 and MYC expression in JQ1-treated mouse xenografts; assay type: in vivo, NOD-SCID mice; details: JQ1 50 mg/kg intraperitoneal on alternating days for 14 days vs DMSO
Excerpt: as §3
Medulloblastoma xenografts (intracranial). All mouse studies were approved and performed in accordance with the policies and regulations of the Animal Care and Use Committee of Johns Hopkins University. Intracranial MB xenografts were established by injecting D425 Med cells, MED211 cells, D425 Med cells with lnc-HLX-2-7 deleted, and MED211 cells with lnc-HLX-2-7 deleted into the cerebellums of NOD-SCID mice (Jackson Laboratory, Bar Harbor, ME). Cerebellar coordinates were −2 mm from lambda, +1 mm laterally, and 1.5 mm deep. Seven days after injection, mice were administered JQ1 (50 mg/kg) or vehicle alone (DMSO) on alternating days via intraperitoneal injection for 14 days. Tumor growth was evaluated by weekly bioluminescence imaging using an in vivo spectral imaging system (IVIS Lumina II, Xenogen, Alameda, CA).

[7] = tested on: various types of cancer including MB; details: by inhibiting BRD4-mediated regulation of MYC; previous studies; cited from earlier work
MYC = assay: qRT-PCR of MYC expression in MB cells; assay type: cell-based, human; details: JQ1 100 or 300 nM, relative to DMSO-treated cells
Procedure: as §2, §3, §5

| Compound | apoptosis (apoptotic cell numbers) (D425 Med cells [1]) | apoptosis (apoptotic cell numbers) (MED211 cells [2]) | MB cell growth (viable cell numbers) (D425 Med cells [3]; D425 Med cells, ASO 50 nM, 72 hours after transfection, p<0.01) | MB cell growth (viable cell numbers) (MED211 cells [4]; MED211 cells, ASO 50 nM, 72 hours after transfection, p<0.01) | lnc-HLX-2-7 expression (lnc-HLX-2-7 [5]; D425 Med cells, ASO 50 nM, compared to control ASO-luc, p<0.01) | lnc-HLX-2-7 expression (lnc-HLX-2-7 [5]; MED211 cells, ASO 50 nM, compared to control ASO-luc, p<0.01) | HLX expression (HLX; D425 Med cells) | HLX expression (HLX; MED211 cells) | lnc-HLX2-7 expression in vivo (lnc-HLX-2-7 [6]) | cancer cell proliferation [7] | cell growth (viable cell numbers) (D425 Med cells [3]; D425 Med cells treated with JQ1, relative to DMSO (FIG. 11B), suppressed by lnc-HLX-2-7 overexpression) | cell growth (viable cell numbers) (MED211 cells [4]; MED211 cells treated with JQ1, relative to DMSO (FIG. 11B), suppressed by lnc-HLX-2-7 overexpression) | lnc-HLX-2-7 expression (lnc-HLX-2-7 [5]; D425 Med cells, JQ1 100 or 300 nM, relative to DMSO-treated cells) | lnc-HLX-2-7 expression (lnc-HLX-2-7 [5]; MED211 cells, JQ1 100 or 300 nM, relative to DMSO-treated cells) | lnc-HLX2-7 expression (summary statement) (lnc-HLX-2-7 [5]; no cell line named at the place) | MYC expression (MYC; D425 Med cells) | MYC expression (MYC; MED211 cells) |
| --- | --- | --- | --- | --- | --- | --- | --- | --- | --- | --- | --- | --- | --- | --- | --- | --- | --- |
| ASO-lnc-HLX-2-7: LNA GapmeR antisense oligonucleotide with phosphorothioate linkages targeting lnc-HLX-2-7: +T*+G*+A*G*A*G*A*T*T*A*A*T*C*T*A*G*A*T*+T*+G*+C (antisense TGAGAGATTAATCTAGATTGC; sugars from the 5' end l3 d15 l3, all phosphorothioate, methylation of C not given here) | induced apoptosis | induced apoptosis | significantly suppressed | significantly suppressed | significantly decreased | significantly decreased | significantly reduced | significantly reduced |  |  |  |  |  |  |  |  |  |
| Cc1sc2c(c1C)C(c1ccc(Cl)cc1)=N[C@@H](CC(=O)OC(C)(C)C)c1nnc(C)n1-2 [JQ1] |  |  |  |  |  |  |  |  | downregulation | effectively suppresses | cell growth inhibition | cell growth inhibition | downregulated | downregulated | reduced | downregulated | downregulated |
